Data taken from patent US9403796B2, “Amidomethyl-substituted oxindole derivatives and the use thereof for the treatment of vasopressin-dependent illnesses” (AbbVie Deutschland GmbH & Co. KG, priority 2007, dated 2016).

Columns and labels:
[1] = molecular target: human vasopressin V1a receptor (Homo sapiens, UniProt P37288); assay: Vasopressin V1a receptor binding assay; conditions: selectivity quotient, human V1a vs human V1b
[2] = molecular target: T1, human vasopressin V1b receptor (Homo sapiens, UniProt P47901); assay: Vasopressin V1b receptor binding assay; conditions: CHO-K1 membranes, 3H-AVP displacement
T1 construct: expressed in transfected cells; host or cells: CHO-K1 (cell line hV1b_3H2_CHO), membrane preparation
T1 sequence (P47901 1-424): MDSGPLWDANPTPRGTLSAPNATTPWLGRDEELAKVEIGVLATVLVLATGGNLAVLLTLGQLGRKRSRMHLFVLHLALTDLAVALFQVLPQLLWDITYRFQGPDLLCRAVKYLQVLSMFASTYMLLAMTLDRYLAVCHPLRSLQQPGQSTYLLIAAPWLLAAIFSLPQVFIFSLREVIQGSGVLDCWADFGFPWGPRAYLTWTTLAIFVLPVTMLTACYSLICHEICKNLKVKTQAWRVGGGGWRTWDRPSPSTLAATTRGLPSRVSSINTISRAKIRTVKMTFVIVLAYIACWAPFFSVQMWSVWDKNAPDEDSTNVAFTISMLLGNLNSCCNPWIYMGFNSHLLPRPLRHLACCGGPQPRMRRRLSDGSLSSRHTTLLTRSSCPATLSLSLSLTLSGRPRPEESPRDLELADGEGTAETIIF
Procedure: The substance concentration was further diluted 1:5 in the assay mixture (2% DMSO in the mixture).
The nonspecific binding was determined with […] (Bachem #H1780). All determinations were carried out as triplicate determinations.

[3] = Determination of the microsomal half-life / microsomal clearance; format: in vitro ADME; conditions: pH 7.4; human liver microsomes, 0.5 μM test substance
Procedure: The metabolic stability of the compounds of the invention was determined in the following assay.
The test substances were incubated in a concentration of 0.5 μM as follows:
0.5 μM test substance are preincubated together with liver microsomes from different species (from rat, human or other species) (0.25 mg of microsomal protein/ml) in 0.05 M potassium phosphate buffer of pH 7.4 in microtiter plates at 37° C. for 5 min. The reaction is started by adding NADPH (1 mg/mL). After 0, 5, 10, 15, 20 and 30 min, 50 μl aliquots are removed, and the reaction is immediately stopped and cooled with the same volume of acetonitrile. The samples are frozen until analyzed. The remaining concentration of undegraded test substance is determined by MSMS. The half-life (T½) is determined from the gradient of the signal of test substance/unit time plot, it being possible to calculate the half-life of the test substance, assuming first order kinetics, from the decrease in the concentration of the compound with time. The microsomal clearance (mCl) is calculated from mCl=In2/T½/(content of microsomal protein in mg/ml)×1000 [ml/min/mg] (modified from references: Di, The Society for Biomolecular Screening, 2003, 453-462; Obach, DMD, 1999 vol. 27. N 11, 1350-1359).

human vasopressin V1a receptor, sequence (P37288 whole entry): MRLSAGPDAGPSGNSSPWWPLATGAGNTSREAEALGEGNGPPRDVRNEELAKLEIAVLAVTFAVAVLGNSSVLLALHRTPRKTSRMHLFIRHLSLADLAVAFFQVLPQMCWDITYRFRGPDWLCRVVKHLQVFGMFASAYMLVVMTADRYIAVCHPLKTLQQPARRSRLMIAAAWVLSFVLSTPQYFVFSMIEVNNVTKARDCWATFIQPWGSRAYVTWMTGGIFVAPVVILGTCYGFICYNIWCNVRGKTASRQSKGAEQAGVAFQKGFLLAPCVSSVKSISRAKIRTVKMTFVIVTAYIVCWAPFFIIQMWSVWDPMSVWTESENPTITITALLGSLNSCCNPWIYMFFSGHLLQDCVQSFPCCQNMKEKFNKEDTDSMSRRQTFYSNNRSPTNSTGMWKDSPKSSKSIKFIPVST

Ki(h-V1a)/Ki(h-V1b) [1] | Ki [2] | microsomal CLint at 0.5 μM [3] | Compound
++ (15-30) | 3 to 30 nM | < 100 µL/min/mg | CCOc1ncccc1C1(CC(=O)N2CCC(N3CCN(C)CC3)CC2)C(=O)N(S(=O)(=O)c2ccccc2)c2ccc(C#N)cc21.O=C(O)C(F)(F)F (racemic) [Example 1, (±)-1-Phenylsulfonyl-3-(2-ethoxypyridin-3-yl)-3-{2-[4-(4-methylpiperazin-1-yl)piperidin-1-yl]-2-oxoethyl}-2-oxo-2,3-dihydro-1H-indole-5-carbonitrile, trifluoroacetic acid salt]
+++ (>30) | < 3 nM | < 100 µL/min/mg | CCOc1ncccc1C1(CC(=O)N2CCC(N3CCN(CC)CC3)CC2)C(=O)N(S(=O)(=O)c2ccc(OC)cc2OC)c2ccc(C#N)cc21.O=C(O)C(F)(F)F (racemic) [Example 2, (±)-1-(2,4-Dimethoxyphenylsulfonyl)-3-(2-ethoxypyridin-3-yl)-3-{2-[4-(4-ethylpiperazin-1-yl)piperidin-1-yl]-2-oxoethyl}-2-oxo-2,3-dihydro-1H-indole-5-carbonitrile trifluoroacetic acid salt]
+++ (>30) | 3 to 30 nM | < 100 µL/min/mg | CCOc1ncccc1C1(CC(=O)N2CCC(N3CCN(CC)CC3)CC2)C(=O)N(S(=O)(=O)c2ccccc2)c2ccc(C#N)cc21.O=C(O)C(F)(F)F (racemic) [Example 3, (±)-1-Phenylsulfonyl-3-(2-ethoxypyridin-3-yl)-3-{2-[4-(4-ethylpiperazin-1-yl)piperidin-1-yl]-2-oxoethyl}-2-oxo-2,3-dihydro-1H-indole-5-carbonitrile, trifluoroacetic acid salt]
+++ (>30) | 3 to 30 nM | 100 to 200 µL/min/mg | CCOc1ncccc1C1(CC(=O)N2CCC(N3CCN(CC)CC3)CC2)C(=O)N(S(=O)(=O)c2ccccc2OC)c2ccc(C#N)cc21.O=C(O)C(F)(F)F (racemic) [Example 4, (±)-3-(2-Ethoxypyridin-3-yl)-3-{2-[4-(4-ethylpiperazin-1-yl)piperidin-1-yl]-2-oxoethyl}-1-(2-methoxyphenylsulfonyl)-2-oxo-2,3-dihydro-1H-indole-5-carbonitrile, trifluoroacetic acid salt]
++ (15-30) | 3 to 30 nM | 100 to 200 µL/min/mg | CCOc1ncccc1C1(CC(=O)N2CCC(N3CCN(C)CC3)CC2)C(=O)N(S(=O)(=O)c2ccccc2OC)c2ccc(C#N)cc21.O=C(O)C(F)(F)F (racemic) [Example 5, (±)-3-(2-Ethoxypyridin-3-yl)-1-(2-methoxyphenylsulfonyl)-3-{2-[4-(4-methylpiperazin-1-yl)-piperidin-1-yl]-2-oxoethyl}-2-oxo-2,3-dihydro-1H-indole-5-carbonitrile, trifluoroacetic acid]
+++ (>30) | < 3 nM | < 100 µL/min/mg | CCOc1ncccc1C1(CC(=O)N2CCC(N3CCN(C)CC3)CC2)C(=O)N(S(=O)(=O)c2ccc(OC)cc2OC)c2ccc(C#N)cc21.O=C(O)C(F)(F)F (racemic) [Example 6, (±)-1-(2,4-Dimethoxyphenylsulfonyl)-3-(2-ethoxypyridin-3-yl)-3-{2-[4-(4-methylpiperazin-1-yl)piperidin-1-yl]-2-oxoethyl}-2-oxo-2,3-dihydro-1H-indole-5-carbonitrile, trifluoroacetic acid salt]
+++ (>30) | 3 to 30 nM | < 100 µL/min/mg | CCOc1ncccc1C1(CC(=O)N2CCN(C3CCN(C)CC3)CC2)C(=O)N(S(=O)(=O)c2ccccc2)c2ccc(C#N)cc21.O=C(O)C(F)(F)F (racemic) [Example 7, (±)-1-Phenylsulfonyl-3-(2-ethoxypyridin-3-yl)-3-{2-[4-(1-methylpiperidin-4-yl)piperazin-1-yl]-2-oxoethyl}-2-oxo-2,3-dihydro-1H-indole-5-carbonitrile, trifluoroacetic acid salt]
+++ (>30) | 3 to 30 nM | < 100 µL/min/mg | CCOc1ncccc1C1(CC(=O)N2CCN(C3CCN(C)CC3)CC2)C(=O)N(S(=O)(=O)c2ccccc2OC)c2ccc(C#N)cc21.O=C(O)C(F)(F)F (racemic) [Example 8, (±)-3-(2-Ethoxypyridin-3-yl)-1-(2-methoxyphenylsulfonyl)-3-{2-[4-(1-methylpiperidin-4-yl)-piperazin-1-yl]-2-oxoethyl}-2-oxo-2,3-dihydro-1H-indole-5-carbonitrile, trifluoroacetic acid salt]
+++ (>30) | < 3 nM | < 100 µL/min/mg | CCOc1ncccc1C1(CC(=O)N2CCN(C3CCN(C)CC3)CC2)C(=O)N(S(=O)(=O)c2ccc(OC)cc2OC)c2ccc(C#N)cc21.O=C(O)C(F)(F)F (racemic) [Example 9, (±)-1-(2,4-Dimethoxyphenylsulfonyl)-3-(2-ethoxypyridin-3-yl)-3-{2-[4-(1-methylpiperidin-4-yl)piperazin-1-yl]-2-oxoethyl}-2-oxo-2,3-dihydro-1H-indole-5-carbonitrile, trifluoroacetic acid salt]
+++ (>30) | < 3 nM | < 100 µL/min/mg | CCOc1ncccc1C1(CC(=O)N2CCN(C3CCN(CC)CC3)CC2)C(=O)N(S(=O)(=O)c2ccc(OC)cc2OC)c2ccc(C#N)cc21 (single isomer, unassigned; (-)) [Example 10B, (−)1-(2,4-Dimethoxyphenylsulfonyl)-3-(2-ethoxypyridin-3-yl)-3-{2-[4-(1-ethylpiperidin-4-yl)-piperazin-1-yl]-2-oxoethyl}-2-oxo-2,3-dihydro-1H-indole-5-carbonitrile]
